# Data: patent US8653048B2 (Sanlugen Pharmatech Ltd., priority 2009, dated 2014)
# Assays:
# [1] = system: Bel7402: a human liver cancer cell line; test: MTT analytical method, Bel7402 cells; format: cell-based; settings: Bel-7402, 72 h
# Excerpt: (§1) MTT analytical method was used to test the prodrugs for various tumor cells.
# (§2) • 1) Cell lines: NCI-H460, A549, LOVO, HT-29, MDA-MB-231, SGC7901, HepG2 or BEL-7402 cell lines. Culture: adherent culturing in D-MEM (Hyclone, Inc.) containing 10% fetal calf serum. The initial cell concentration was about 3×10^5 /mL. The cell was passaged by 1:3 dilution in every 2-3 days. On the day before the test, the cell was passaged by 1:2 dilution, the cell concentration for the test was 5-10×10^5 /mL. • 2) Dissolution and dilution of compounds: according to the weight and molecular weight of the drugs provided, 100-200 μL of DMSO was added. Then normal saline was added to make the final diluted concentration of the drugs be 5 mM (Note that the final concentration of DMSO should not be more than 10%). • 3) D-MEM or RPMI 1640 cell culture medium, Gibco, Inc. • 4) Fetal calf serum Hyclone, Inc. • 5) Cell dissociation buffer, 0.25% Trypsin+0.02% EDTA. • 6) MTT solution, MTT Powder (Sigma) were dissolved in PBS buffer solution to make a solution of 5 mg/mL. The solution was filtered by a 0.22 μm micropore membrane and stored at −20° C. • 7) PBS buffer solution. • 8) 10% acidified SDS, 0.01N HCl. • 9) Centrifuge tubes, haustorial tubes etc. (BD, Inc.); 96-well plates (Costatr, Inc.) Procedures: • 1) Cell inoculation: Cells grown for 24 hours after passage, which cells were in good growth state, were used. The cells were harvested by the routine method. The cell concentration was adjust with a fresh culture solution to 2×10^5/mL (for adherent cells)-3×10^5/mL (for suspension cells). The adherent cells were inoculated at 100 μL/well and then cultivated in an incubator with 5% CO2 at 37° C. for 24 h. Thereafter the used culture solution was removed and 95 μL/well of fresh culture solution was added. The suspension cells were inoculated at 95 μL/well directly. • 2) Drugs treatment: 9 concentration grades were designed for every drug, and every concentration had 3 wells. The control group had 5 wells. The control group was tested simultaneously in each test. The final concentrations of a drug added were […], and 5 μL normal saline was added to the control group. • 3) Cell culture and detection: the cells were cultured in an incubator with 5% CO2 at 37° C. for 72 h after the drug was added, then 10 μL MTT was added to each well and the culture was continued for 4 h. 100 μL of 10% SDS (containing 0.01N HCl) was added to each well. After 24 h, the absorbance (A) of each well was determined by Bio-rad 680 ELISA with the detection wavelength of 570 nm and the reference wavelength of 630 nm. Calculation:
# (§3) First, the absorbance (A) of each well was averaged (removing any data with big difference). […] A0 was the mean absorbance of the control wells. The effect curve of the drug concentration was drawn using EXCEL software and the drug concentration for 50% cell survival was calculated according to an appropriate computing methods.
# [2] = system: HT29: a human colon cancer cell line; test: MTT analytical method, HT29 cells; format: cell-based; settings: HT-29, 72 h
# Excerpt: as §1, §2, §3
# [3] = system: A549: a human lung cancer cell line; test: MTT analytical method, A549 cells; format: cell-based; settings: 72 h
# Excerpt: as §1, §2, §3
# [4] = system: H460 cells, a human lung cancer cell line, inoculated in nude mice; test: H460 tumor in nude mice, oral administration of SL-01; format: in vivo, Balb/c female nude mice; settings: for Mean Volume of Tumor: Ftorafur 120 mg/kg gastric gavage
# Description: 1. […] Suspension formulation was prepared using 2.5% starch for intragastric administration. […] In the test, it was dissolved in normal saline and filtered with microfiltration membrane and administrated by tail vein injection. Positive control drug: Ftorafur (FT-207) produced by Qilu Pharmaceutical Co. Ltd., oral formulation.
# 2. Experimental animals: 50 Balb/c female nude mice at 4-5 weeks old, purchased from Peking University Health Science Center.
# 1. Culture of tumor cells: H460 cells were cultured in an incubator with 5% CO2 at 37° C. using RPMI-1640 nutrient solution containing 10% fetal calf serum. The cells were passaged through routine method.
# 2.2 Method of inoculating tumor cells in nude mice: cells were collected when they grew to about […] in culture flasks. Cells were washed twice with PBS before they were digested, then 1.5 mL of digestion solution juices was added into every bottle. They were observed under a microscope and the digestion was terminated after the cells were shed. Cell suspension was collected into 50 mL of centrifugal tube and centrifuged and washed twice with PBS. It was counted and suspended with 10 mL of normal saline to get the tumor cell suspension of inoculated nude mice. The tumor cells (1×10^7/0.2 mL) were inoculated in the left front armpits of mice. The tumor growth was observed after the inoculation.
# 4. Evaluation protocols for drug treating effect: these mice were weighed before drug administration and every week thereafter. The long tumor pathline (a) and the short tumor pathline (b) were measured at the same time. The formula for calculating the tumor volume is V=(a×b^2)/2. Mice were euthanized after drug administration for 3 weeks. The tumor was taken out and weighed. […] W was the tumor weight of the treatment group.
Structure (SMILES),IC50 [1] [µM],IC50 [2] [µM],IC50 [3] [µM],further results
"CCCCCCCCCCCCOC(=O)c1ccccc1C(=O)Nc1ccn([C@@H]2O[C@H](CO)[C@@H](O)C2(F)F)c(=O)n1 [Compound 1, Dodecyl-2-((1-((2R,4R,5R)-3,3-difluoro-4-hydroxy-5-(hydroxymethyl)-tetrahydrofuran-2-yl)-2-oxo-1,2-dihydropyrimidin-4-yl)carbamoyl)benzoate]",20,13,23,–
"CCCCCCCCCCCOC(=O)c1ccccc1C(=O)Nc1ccn([C@@H]2O[C@H](CO)[C@@H](O)C2(F)F)c(=O)n1 [Compound 2, Undecyl-2-((1-((2R,4R,5R)-3,3-difluoro-4-hydroxy-5-(hydroxymethyl)-tetrahydrofuran-2-yl)-2-oxo-1,2-dihydropyrimidin-4-yl)carbamoyl)benzoate]",162,> 200,–,–
"CCCCCCCCCCCCCCCCOC(=O)c1ccccc1C(=O)Nc1ccn([C@@H]2O[C@H](CO)[C@@H](O)C2(F)F)c(=O)n1 [Compound 3, Hexadecyl-2-((1-((2R,4R,5R)-3,3-difluoro-4-hydroxy-5-(hydroxymethyl)-tetrahydrofuran-2-yl)-2-oxo-1,2-dihydropyrimidin-4-yl)carbamoyl)benzoate]",60,10,–,–
"CCCCCCCCCCOC(=O)c1cccc(C(=O)Nc2ccn([C@@H]3O[C@H](CO)[C@@H](O)C3(F)F)c(=O)n2)c1 [Compound 6, Decyl-3-((1-((2R,4R,5R)-3,3-difluoro-4-hydroxy-5-(hydroxymethyl)-tetrahydrofuran-2-yl)-2-oxo-1,2-dihydropyrimidin-4-yl)carbamoyl)benzoate]",30,13,–,–
"CCCCCCCCCCCOC(=O)c1cccc(C(=O)Nc2ccn([C@@H]3O[C@H](CO)[C@@H](O)C3(F)F)c(=O)n2)c1 [Compound 7, Undecyl-3-((1-((2R,4R,5R)-3,3-difluoro-4-hydroxy-5-(hydroxymethyl)-tetrahydrofuran-2-yl)-2-oxo-1,2-dihydropyrimidin-4-yl)carbamoyl)benzoate]",125,80,–,–
"CCCCCCCCCCCOC(=O)c1ccc(C(=O)Nc2ccn([C@@H]3O[C@H](CO)[C@@H](O)C3(F)F)c(=O)n2)nc1 [Compound 10, Undecyl-6-((1-((2R,4R,5R)-3,3-difluoro-4-hydroxy-5-(hydroxymethyl)-tetrahydrofuran-2-yl)-2-oxo-1,2-dihydropyrimidin-4-yl)carbamoyl)nicotinate]",30,4,13,–
"CCCCCCCCCCCOC(=O)c1ccc(C(=O)Nc2ccn([C@@H]3O[C@H](CO)[C@@H](O)C3(F)F)c(=O)n2)cn1 [Compound 11, Undecyl-5-((1-((2R,4R,5R)-3,3-difluoro-4-hydroxy-5-(hydroxymethyl)-tetrahydrofuran-2-yl)-2-oxo-1,2-dihydropyrimidin-4-yl)carbamoyl)picolinate]",4,< 2,3,–
"CCCCCCCCCCCCOC(=O)c1ncccc1C(=O)Nc1ccn([C@@H]2O[C@H](CO)[C@@H](O)C2(F)F)c(=O)n1 [Compound 12, Dodecyl-3-((1-((2R,4R,5R)-3,3-difluoro-4-hydroxy-5-(hydroxymethyl)-tetrahydrofuran-2-yl)-2-oxo-1,2-dihydropyrimidin-4-yl)carbamoyl)picolinate]",60,20,–,–
"O=c1[nH]c(=O)n(C2CCCO2)cc1F (stereo not drawn) [FT-207, Ftorafur, reference compound]",–,–,–,"Mean Volume of Tumor ([4]; day 7): 756.7 mm^3; Mean Volume of Tumor ([4]; day 14): 1347.0 mm^3; Mean Volume of Tumor ([4]; day 18): 1526.3 mm^3; Mean Volume of Tumor ([4]; day 22): 1779.4 mm^3; Inhibition ratio (tumor weight) ([4]; Positive control (Ftorafur 120 mg/kg gavage)): 38.5%; Mean Weight of Nude Mice ([4]; Positive control (Ftorafur 120 mg/kg gavage), day 0): 19.3 g; Mean Weight of Nude Mice ([4]; Positive control (Ftorafur 120 mg/kg gavage), day 7): 19.5 g; Mean Weight of Nude Mice ([4]; Positive control (Ftorafur 120 mg/kg gavage), day 14): 19.8 g; Mean Weight of Nude Mice ([4]; Positive control (Ftorafur 120 mg/kg gavage), day 22): 19.7 g; Tumor Weight, Average Value ([4]; Positive control (Ftorafur 120 mg/kg gavage), end of the experiment): 1.26 g; efficacy by t-test, in words ([4]; positive control group (Ftorafur 120 mg/kg gavage)): significant efficacy"

# Continued, in another order:
IC50 [1] [µM],IC50 [2] [µM],IC50 [3] [µM],Structure (SMILES),further results
> 200,35,140,"CCCCCCCCCCCOC(=O)c1cccnc1C(=O)Nc1ccn([C@@H]2O[C@H](CO)[C@@H](O)C2(F)F)c(=O)n1 [Compound 14, Undecyl-2-((1-((2R,4R,5R)-3,3-difluoro-4-hydroxy-5-(hydroxymethyl)-tetrahydrofuran-2-yl)-2-oxo-1,2-dihydropyrimidin-4-yl)carbamoyl)nicotinate]",–
16,7,15,"CCCCCCCCCCCCOC(=O)c1cccc(C(=O)Nc2ccn([C@@H]3O[C@H](CO)[C@@H](O)C3(F)F)c(=O)n2)n1 [Compound 18, Dodecyl-6-((1-((2R,4R,5R)-3,3-difluoro-4-hydroxy-5-(hydroxymethyl)-tetrahydrofuran-2-yl)-2-oxo-1,2-dihydropyrimidin-4-yl)carbamoyl)picolinate]",–
46,25,–,"CCCCCCCCCCCOC(=O)c1cccc(C(=O)Nc2ccn([C@@H]3O[C@H](CO)[C@@H](O)C3(F)F)c(=O)n2)n1 [Compound 19, Undecyl-6-((1-((2R,4R,5R)-3,3-difluoro-4-hydroxy-5-(hydroxymethyl)-tetrahydrofuran-2-yl)-2-oxo-1,2-dihydropyrimidin-4-yl)carbamoyl)picolinate]",–
14,6,13,"CCCCCCCCCCCCOC(=O)c1ccc(C(=O)Nc2ccn([C@@H]3O[C@H](CO)[C@@H](O)C3(F)F)c(=O)n2)s1 [Compound 20, Dodecyl-5-((1-((2R,4R,5R)-3,3-difluoro-4-hydroxy-5-(hydroxymethyl)-tetrahydrofuran-2-yl)-2-oxo-1,2-dihydropyrimidin-4-yl)carbamoyl)thiophene-2-carboxylate]",–
43,24,–,"CCCCCCCCCCCOC(=O)c1ccc(C(=O)Nc2ccn([C@@H]3O[C@H](CO)[C@@H](O)C3(F)F)c(=O)n2)s1 [Compound 21, Undecyl-5-((1-((2R,4R,5R)-3,3-difluoro-4-hydroxy-5-(hydroxymethyl)-tetrahydrofuran-2-yl)-2-oxo-1,2-dihydropyrimidin-4-yl)carbamoyl)thiophene-2-carboxylate]",–
> 200,> 200,–,"CCCCCCCCCCCOC(=O)C1CCCCC1C(=O)Nc1ccn([C@@H]2O[C@H](CO)[C@@H](O)C2(F)F)c(=O)n1 (stereo partly drawn) [Compound 36, Undecyl-2-((1-((2R,4R,5R)-3,3-difluoro-4-hydroxy-5-(hydroxymethyl)-tetrahydrofuran-2-yl)-2-oxo-1,2-dihydropyrimidin-4-yl)carbamoyl)cyclohexanecarboxylate]",–
